Test results reported in patent US20090247616A1, “USE OF BENZO-FUSED HETEROCYLE SULFAMIDE DERIVATIVES FOR THE TREATMENT OF ANXIETY” (priority 2008, published 2009).

Columns and labels:
mouse = experiment: Four Plate Test, Mouse; format: in vivo; settings: 32 mg/kg p.o. (positive control)
Description: The Four Plate assay was run according to the procedure as described by Aron et al (Neuropharmacology, 10, 459-469, 1971). In this assay, the rodent experiences an electric shock upon crossing from one plate to another. Anxiolytics (such as benzodiazepines) increase the number of punished crossings.
Animals were placed individually in a white plastic enclosure containing a floor consisting of 4 metal plates connected to an electric shock generator (Apelex: Type 011346). The mouse was left to explore freely for 15 seconds. Then, every time the mouse crossed from one plate to another, it received a weak electric shock (2.5 mA, 1.5 s). The number of punished crossings were counted during a 1 minute test. Ten (10) mice were used for each study group. The test was performed blind.
Compound #8 was evaluated at 30 mg/kg, 60 mg/kg and 120 mg/kg doses, administered p.o. 60 minutes before the test, and compared with a vehicle control group. Compound #8 was homogenized and dispersed using a mortar and a pestle in 0.2% hydroxypropylmethylcellulose (HPMC) in distilled water, which served as the vehicle. As a positive control, Clobazam (32 mg/kg p.o.), was administered under the same experimental conditions. […]
(§1) Data were analyzed by comparing groups treated with compound #8 with groups treated with vehicle control using unpaired Student's t tests.

Male Rj:NMRI mice = experiment: Elevated Plus Maze, Mouse (EPM); format: in vivo; settings: 16 mg/kg p.o. (positive control)
Description: Rodents avoid open spaces (in the case of the assay apparatus, the open arms of an elevated plus-maze). Compounds which have anti-anxiety activity increase exploratory activity of the rodents in the open arms of the elevated plus-maze. The EPM assay was run according to the procedure as described by Handley and Mithani (Naunyn. Schmied. Arch. Pharmacol., 327, 1-5, 1984).
Male Rj:NMRI mice, weighing 20-30 g (max. range per experiment=5 g) at the beginning of the experiments, were obtained from Elevage Janvier, 53940 Le Genest-Saint-Isle, France and used in the assay. The animals were delivered to the laboratory at least 5 days before the experiments during which time they were acclimatized to laboratory conditions. The mice were housed in groups of 10 in Macrolon cages (25×19×13 cm) on wood litter (Litalabo—SPPS, 95100 Argenteuil, France) with free access to food (Code 113—SAFE, 89290 Augy, France) and water until tested (or as indicated otherwise). The animal house was maintained under artificial lighting (12 hours) between 7:00 and 19:00 in a controlled ambient temperature of 21±3° C., and relative humidity between 30-80%.
The elevated plus-maze consisted of 4 arms of equal length and width (14×5 cm) arranged in the form of a plus sign (+). Two opposite arms were enclosed by 12 cm high walls (closed arms). The 2 other arms had no walls (open arms). The maze was raised 56 cm above the floor. A mouse was placed in the centre of the plus-maze and left to explore the maze for 5 minutes. The number of entries into the open and closed arms and the time spent in the open arms was recorded. Ten (10) mice were used for each study group. The test was performed blind.
Compound #8 was evaluated at 30 mg/kg, 60 mg/kg and 120 mg/kg doses, administered p.o. 60 minutes before the test, and compared with a vehicle control group. Compound #8 was homogenized and dispersed using a mortar and a pestle in 0.2% hydroxypropylmethylcellulose (HPMC) in distilled water, which served as the vehicle. As a positive control, Clobazam (16 mg/kg p.o.), was administered under the same experimental conditions. Clobazam as URBANYL® tablets (16 mg/kg p.o.) were dispersed in 0.2% hydroxypropylmethylcellulose (HPMC) in distilled water for administration. Each experiment therefore included 5 study groups of 10 mice each.
as §1

[1] = same experimental conditions, 10 mice

Structure (SMILES)	Number of Punished Crossings, Mean ± S.E.M. (mouse; [1])	Number of Punished Crossings, % Change (mouse; change from vehicle control)	Closed Arms Number of Entries, Mean ± S.E.M. (Male Rj:NMRI mice; [1])	Open Arms Number of Entries, Mean ± S.E.M. (Male Rj:NMRI mice; [1])	Open Arms Time Spent (sec), Mean ± S.E.M. (Male Rj:NMRI mice; [1])	Closed Arms Number of Entries, % change (Male Rj:NMRI mice; change from vehicle control)	Open Arms Number of Entries, % change (Male Rj:NMRI mice; change from vehicle control)	Open Arms Time Spent, % change (Male Rj:NMRI mice; change from vehicle control)	melting point
CN1C(=O)CC(=O)N(c2ccccc2)c2cc(Cl)ccc21 [CLOBAZAM, Clobazam]	9.9 ± 1.2 (***)	+154%	11.9 ± 1.5 (*)	11.7 ± 1.1 (***)	120.1 ± 13.1 s	+59%	+350%	+567%	–
NS(=O)(=O)NCC1CCc2ccccc2O1 (stereo not drawn)	–	–	–	–	–	–	–	–	100 to 101 °C
